Publication PMC11355573, “A New Renieramycin T Right-Half Analog as a Small Molecule Degrader of STAT3” (Marine Drugs, 2024)
Like-named read-outs stand apart in the source and are kept apart here. Residues, ends and D or L forms follow the SMILES beside them. *: point of attachment. Cbz = O=C(OCc1ccccc1)*

Key:
[1] = tested on: H292 cells; test: MTT cell viability assay (cytotoxicity); format: cell-based, human; settings: read-out: IC50 ± SD H292
Method: (§1) NSCLCs H292 and H460 were treated with various concentrations of derivatives of the RT right-half analog for 24 h. […] However, the IC50 values for DH_17, DH_20, DH_23, and DH_26 in H460 cells were greater than 100 μM. TM-(−)-18 was identified as a potent compound in a previous study. The structure of TM-(−)-18 was present in Figure 1A. […] To assess the selectivity of DH_28, DH_30, DH_31, and TM-(−)-18 in lung cancer cells, non-tumorigenic epithelial cell lines derived from human bronchial epithelial cells (BEAS-2B) were treated with DH_28, DH_30, DH_31, and TM-(−)-18 at various concentrations for 24 h.
(§2) MTT assay was conducted to ascertain cell viability in the presence of DH_17, DH_20, DH_23, DH_26, DH_28, DH_30, DH_31, or TM-(–)-18. H292 and H460 cells (1.0 × 10^4 cells per well) were seeded in 96-well plates. Following overnight incubation, the cells were treated with different concentrations of RT right–half analogs (0–100 μM) for 24 h at 37 °C. Subsequently, cell viability was assessed using MTT assay, following the manufacturers’ protocols. The optical density was measured at 570 nm using a CLARIOStar microplate reader (BMG Labtech, Ortenberg, Germany).

[2] = tested on: H460 cells; test: MTT cell viability assay (cytotoxicity); format: cell-based, human; settings: read-out: IC50 ± SD H460
Method: as §1, §2

[3] = molecular target: T1, STAT3 (Homo sapiens, UniProt P40763); test: STAT3 proteasomal degradation, Western blot with or without MG132; format: cell-based
T1 construct: endogenous in cells; host or cells: NCI-H460 (ATCC HTB-177)
T1 sequence (P40763 whole entry): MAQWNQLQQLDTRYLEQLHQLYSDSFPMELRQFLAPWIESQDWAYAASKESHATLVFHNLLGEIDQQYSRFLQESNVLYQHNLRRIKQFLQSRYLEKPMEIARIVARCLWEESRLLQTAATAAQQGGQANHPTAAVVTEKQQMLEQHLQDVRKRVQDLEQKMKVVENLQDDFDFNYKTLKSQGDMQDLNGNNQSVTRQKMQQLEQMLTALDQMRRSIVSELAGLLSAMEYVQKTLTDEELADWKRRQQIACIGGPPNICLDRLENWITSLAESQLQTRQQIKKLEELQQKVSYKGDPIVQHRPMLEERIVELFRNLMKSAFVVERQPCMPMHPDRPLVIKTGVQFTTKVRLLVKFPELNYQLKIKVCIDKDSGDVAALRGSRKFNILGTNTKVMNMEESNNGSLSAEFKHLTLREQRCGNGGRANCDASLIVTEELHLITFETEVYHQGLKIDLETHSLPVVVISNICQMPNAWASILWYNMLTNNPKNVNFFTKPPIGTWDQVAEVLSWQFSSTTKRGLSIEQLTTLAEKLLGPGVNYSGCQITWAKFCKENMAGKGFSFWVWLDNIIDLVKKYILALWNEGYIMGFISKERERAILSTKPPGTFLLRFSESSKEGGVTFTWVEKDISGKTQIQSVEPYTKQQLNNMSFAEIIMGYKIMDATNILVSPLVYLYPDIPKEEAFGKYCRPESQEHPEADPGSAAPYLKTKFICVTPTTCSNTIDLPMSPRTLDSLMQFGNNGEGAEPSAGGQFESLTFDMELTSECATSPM
Method: To explore whether the reduction in total STAT3 protein after DH_31 treatments (as shown in Figure 5B–E) occurs at the mRNA or protein levels, we first investigated mRNA levels using Real-time qPCR. […] To evaluate whether DH_31 affects STAT3 stability, pretreatment with MG132, a potent selective proteasome inhibitor, was performed. H460 cells were pretreated with or without MG132 (10 μM) for 1 h and then cells were either treated with DH_31 for 6 h or left untreated. […] The proteasome can recognize and degrade protein targets that are conjugated by single or poly-ubiquitin molecules. To investigate the ubiquitination level of STAT3 with DH_31 treatments, the ubiquitination level was evaluated using immunoprecipitation and Western blot analysis of the STAT3–ubiquitin complex in the lung cancer cells treated with DH_31 and in untreated cells.
Immunoprecipitation assay was performed to investigate ubiquitin–proteasomal degradation, shedding light on the regulatory mechanisms involved. H460 cells (4.0 × 10^5 cells per well) were seeded in 6-well plates. Following overnight incubation, the cells were pretreated with 10 μM of a proteasome inhibitor, MG132, for 1 h to prevent proteasomal degradation, and then were treated with different concentrations of DH_31 (0–2.5 μM) for 6 h. After treatment, the cells were lysed as described above. Immunoprecipitation was carried out using the Dynabeads™ Protein G Immunoprecipitation kit, following the manufacturers’ protocols. The magnetic beads were coated with the rabbit anti-STAT3, then incubated with whole-cell lysate and mixed gently overnight at 4 °C. After washing, the supernatant containing the antibody–antigen complex was used to perform Western blot analysis to detect the ubiquitinated STAT3 protein.

[4] = tested on: BEAS-2B cells; test: MTT assay in non-tumorigenic bronchial epithelial cells (selectivity); format: cell-based; settings: Homo sapiens, 24 h, read-out: BEAS-2B IC50 ± SD
Method: as §1
Figure 2 The effect of RT right-half analogs on cytotoxicity in NSCLC and human normal lung epithelial (BEAS-2B) cell lines and apoptotic cell death in NSCLC cells. (A) NSCLC H292 and H460 cells were treated with derivatives of RT right-half analogs for 24 h and analyzed using MTT assay to assess cytotoxicity. (B) IC50 values for H292 and H460 cell lines were calculated. (C) BEAS-2B cells were treated with DH_28, DH_30, DH_31, and TM-(−)-18 for 24 h. The cytotoxic effects were evaluated using an MTT assay, and the IC50 values for BEAS-2B cells were determined. (D) H292 and H460 cells were seeded and treated with 0–10 μM of DH_28, DH_30, and DH_31 for 24 h. Hoechst 33342 and PI were used to stain the cell nuclei. Images were obtained under a fluorescence microscope. (E) The percentages of cell death were calculated based on the stained images in H292 and H460 cells. […] TEXT PRINTED IN THE PICTURE: (B) DH_17: IC50 ± SD (μM) H292: 20.50 ± 3.69; IC50 ± SD (μM) H460: > 100 | (B) DH_20: IC50 ± SD (μM) H292: 21.46 ± 3.77; IC50 ± SD (μM) H460: > 100 | (B) DH_23: IC50 ± SD (μM) H292: 17.50 ± 3.08; IC50 ± SD (μM) H460: > 100 | (B) DH_26: IC50 ± SD (μM) H292: 7.18 ± 2.39; IC50 ± SD (μM) H460: > 100 | (B) DH_28: IC50 ± SD (μM) H292: 9.56 ± 1.87; IC50 ± SD (μM) H460: 11.48 ± 1.87 | (B) DH_30: IC50 ± SD (μM) H292: 7.80 ± 2.30; IC50 ± SD (μM) H460: 4.51 ± 0.78 | (B) DH_31: IC50 ± SD (μM) H292: 5.54 ± 1.04; IC50 ± SD (μM) H460: 2.90 ± 0.58 | (B) TM-(–)-18: IC50 ± SD (μM) H292: > 100; IC50 ± SD (μM) H460: 7.89 ± 1.27 | (C) DH_28: BEAS-2B IC50 ± SD (μM): 16.46 ± 2.11 | (C) DH_30: BEAS-2B IC50 ± SD (μM): 5.50 ± 1.70 | (C) DH_31: BEAS-2B IC50 ± SD (μM): 6.51 ± 1.40 | (C) TM-(–)-18: BEAS-2B IC50 ± SD (μM): 7.25 ± 1.25 DOUBTS OF THE COPYIST ABOUT THIS PICTURE: Panel C, DH_28, IC50: small print, 16.46 ± 2.11 is the best reading; 6 could be 8 / Panel C, DH_30, IC50: small print, 5.50 ± 1.70 is the best reading; 5 could be 6 / Panel C, DH_31, IC50: small print, 6.51 ± 1.40 is the best reading; 6 could be 8 or 5 / Panel C, TM-(–)-18, IC50: small print, 7.25 ± 1.25 is the best reading

[5] = tested on: H292 cells; format: cell-based; settings: H292, 10 µM; for apoptosis: 24 h; for necrosis: 24 h (p < 0.001)
Method: (§3) Apoptosis is a crucial mechanism of cell death induced by anticancer drugs. We further analyzed the apoptosis induction effect of the potent small molecules, namely DH_28, DH_30, and DH_31. Nuclear morphology detected by the staining with nucleus-specific fluorescence dye Hoechst 33342 and cell-impermeable PI for necrotic detection was performed. Morphologic changes by means of condensed and/or fragmented nuclei were observed after 24 h of treatment (Figure 2D). […] Therefore, DH_31 was selected for further experiments.
(§4) Figure 2 The effect of RT right-half analogs on cytotoxicity in NSCLC and human normal lung epithelial (BEAS-2B) cell lines and apoptotic cell death in NSCLC cells. (A) NSCLC H292 and H460 cells were treated with derivatives of RT right-half analogs for 24 h and analyzed using MTT assay to assess cytotoxicity. (B) IC50 values for H292 and H460 cell lines were calculated. (C) BEAS-2B cells were treated with DH_28, DH_30, DH_31, and TM-(−)-18 for 24 h. The cytotoxic effects were evaluated using an MTT assay, and the IC50 values for BEAS-2B cells were determined. (D) H292 and H460 cells were seeded and treated with 0–10 μM of DH_28, DH_30, and DH_31 for 24 h. Hoechst 33342 and PI were used to stain the cell nuclei. Images were obtained under a fluorescence microscope. (E) The percentages of cell death were calculated based on the stained images in H292 and H460 cells. Data represent the mean ± SD (n = 3). *, **, and *** indicate a statistically significant difference between the treated and the untreated cells at p < 0.05, p < 0.01, and p < 0.001, respectively. TEXT PRINTED IN THE PICTURE: (B) DH_17: IC50 ± SD (μM) H292: 20.50 ± 3.69; IC50 ± SD (μM) H460: > 100 | (B) DH_20: IC50 ± SD (μM) H292: 21.46 ± 3.77; IC50 ± SD (μM) H460: > 100 | (B) DH_23: IC50 ± SD (μM) H292: 17.50 ± 3.08; IC50 ± SD (μM) H460: > 100 | (B) DH_26: IC50 ± SD (μM) H292: 7.18 ± 2.39; IC50 ± SD (μM) H460: > 100 | (B) DH_28: IC50 ± SD (μM) H292: 9.56 ± 1.87; IC50 ± SD (μM) H460: 11.48 ± 1.87 | (B) DH_30: IC50 ± SD (μM) H292: 7.80 ± 2.30; IC50 ± SD (μM) H460: 4.51 ± 0.78 | (B) DH_31: IC50 ± SD (μM) H292: 5.54 ± 1.04; IC50 ± SD (μM) H460: 2.90 ± 0.58 | (B) TM-(–)-18: IC50 ± SD (μM) H292: > 100; IC50 ± SD (μM) H460: 7.89 ± 1.27 | (C) DH_28: BEAS-2B IC50 ± SD (μM): 16.46 ± 2.11 | (C) DH_30: BEAS-2B IC50 ± SD (μM): 5.50 ± 1.70 | (C) DH_31: BEAS-2B IC50 ± SD (μM): 6.51 ± 1.40 | (C) TM-(–)-18: BEAS-2B IC50 ± SD (μM): 7.25 ± 1.25 DOUBTS OF THE COPYIST ABOUT THIS PICTURE: Panel C, DH_28, IC50: small print, 16.46 ± 2.11 is the best reading; 6 could be 8 / Panel C, DH_30, IC50: small print, 5.50 ± 1.70 is the best reading; 5 could be 6 / Panel C, DH_31, IC50: small print, 6.51 ± 1.40 is the best reading; 6 could be 8 or 5 / Panel C, TM-(–)-18, IC50: small print, 7.25 ± 1.25 is the best reading

[6] = tested on: H460 cells; format: cell-based; settings: H460, 10 µM, 24 h
Method: as §3, §4

[7] = tested on: B16F10 cells; set-up: method as in PMID 36014573; settings: B16F10 cells induced by the RAW264.7 supernatant; cited from earlier work

Row | Compound | IC50 ([1]; Homo sapiens, NCI-H292, 24 h) [µM] | IC50 ([2]; Homo sapiens, NCI-H460, 24 h) [µM] | IC50 ([1]; 24 h) [µM] | IC50 [4] [µM] | apoptosis [5] | necrosis [5] | apoptotic cell death [6] | necrosis [6] | other results
1 | COc1c(C)cc2c(c1O)[C@@H]1CN(Cc3cncs3)[C@@H](C#N)[C@H](C2)N1C [DH_26, (1R,4R,5S)-10-hydroxy-9-methoxy-8,11-dimethyl-3-(thiazol-5-ylmethyl)-1,2,3,4,5,6-hexahydro-1,5-epiminobenzo[d]azocine-4-carbonitrile] | 7.18 ± 2.39 | > 100 | – | – | – | – | – | – | –
2 | CC(C)C[C@@H](C=O)NC(=O)[C@H](CC(C)C)NC(=O)[C@H](CC(C)C)NC(=O)OCc1ccccc1 [MG132] (Cbz-Leu-Leu-Leu-aldehyde) | – | – | – | – | – | – | – | – | effect on DH_31-induced STAT3 downregulation ([3]; H460, MG132 10 μM 1 h pretreatment, then DH_31 0, 1, 2.5 µM 6 h): significantly reversed; STAT3 level ([3]; H460, MG132 10 μM pretreatment, all DH_31 concentrations): drastically increased
3 | COc1c(C)cc2c(c1O)[C@@H]1CN(Cc3cccc4ccccc34)[C@@H](C#N)[C@H](C2)N1C [DH_28, (1R,4R,5S)-10-hydroxy-9-methoxy-8,11-dimethyl-3-(naphthalen-1-ylmethyl)-1,2,3,4,5,6-hexahydro-1,5-epiminobenzo[d]azocine-4-carbonitrile] | 9.56 ± 1.87 | 11.5 ± 1.87 | < 15 | 16.5 ± 2.11 | significant apoptosis | Necrosis was detected | significant apoptotic cell death | significant necrosis | IC50 ([2]; 24 h): < 15 µM
4 | CC=C(C)C(=O)OCC1c2c(c(O)c(C)c3c2OCO3)CC2C3C4=C(CC(C(C#N)N12)N3C)C(=O)C(C)=C(OC)C4=O (centres unmarked) [RT, Renieramycin T] | – | – | – | – | – | – | – | – | STAT3 expression [7]: reduced; Twist, Snail, Vimentin, and N-cadherin expression [7]: reduced; migration ability [7]: reduced
5 | COc1c(C)cc2c(c1OCc1ccccc1)[C@@H]1CN(Cc3ccc4ccccc4c3)[C@@H](C#N)[C@H](C2)N1C [DH_30, (1R,4R,5S)-10-(benzyloxy)-9-methoxy-8,11-dimethyl-3-(naphthalen-2-ylmethyl)-1,2,3,4,5,6-hexahydro-1,5-epiminobenzo[d]azocine-4-carbonitrile] | 7.8 ± 2.3 | – | < 15 | 5.5 ± 1.7 | significant apoptosis | Necrosis was detected | significant apoptotic cell death | significant necrosis | –
